Results as given in article PMC8708875 (Pharmaceutics, 2021).
Read-outs that look alike come from different tables or passages of the source.

Key:
Glut4 = experiment: GLUT4 translocation assay (subcellular fractions, Western blot); format: cell-based, mouse
Description: C2C12 differentiated myotubes were starved with free-FBS low glucose DMEM for 3 h, and then treated with saline or 5 µM of BMS-536924 insulin receptor inhibitor (Sigma-Aldrich, Sao Paulo, Brazil) for 30 min. Next, C2C12 were incubated in the presence of either vehicle, insulin (100 nM) or Ric4 (100 µM) for 30 min. As described by Tortorella and Pilch, 2002, cells were washed three times with PBS, and homogenized with 40 strokes of a glass tissue grinder in buffer containing sucrose 255 mM, disodium 4 mM, EDTA 20 mM, 4-(2-hydroxyethyl)-1-piperazineethanesulfonic acid (HEPES) 10 mM, pH 7.4, leupeptin 10 µM, pepstatin 1µM, aprotinin 1 µM, phenylmethylsulfonyl fluoride (PMSF) 1 mM, and benzamidine 5 mM (HES buffer). The homogenate was centrifuged at 19,000× g for 20 min. The pellet was saved (P1). The supernatant was recovered and centrifuged at 40,000× g for 20 min. The pellet (MF1) was resuspended in HES buffer. The supernatant was further centrifuged at 180,000× g for 1.5 h and the pellet (MF2) was resuspended in HES buffer. Both pellets MF1 and MF2, referred to as microsomal fraction (MF) correspond to high- and low-density microsomes. The pellet from the first centrifugation (P1) was resuspended in HES buffer, layered onto a 1.12 M sucrose cushion in 20 mM HEPES and 1 mM disodium EDTA, and centrifuged at 100,000× g for 1 h. The pellet (nuclear/endoplasmic reticulum fraction -N/ER) was resuspended in a buffer containing 20 mM Tris (pH 7.4), 50 mM NaCl, 2% Nonidet P-40, 0.5% deoxycholate, 0.2% SDS, and the protease inhibitor cocktail (#P8340; Sigma Aldrich, SP, Brazil). The interphase of the sucrose cushion was collected and pelleted at 40,000× g for 20 min. This PM-containing pellet (PM) was resuspended in PBS plus protease inhibitors. All centrifugations were performed at 4 °C with a Beckman Coulter Ultracentrifuge. Total protein of all samples was determined using Pierce™ BCA Protein Assay Kit (ThermoFisher, Sao Paulo, Brazil). Proteins were submitted to Western blot analysis as described above, using as primary antibody anti-Glut4 (1:1000, Cell Signaling, Boston, MA, USA).
Figure 4 Glucose uptake and GLUT4 translocation induced by Ric4 in C2C12 cells. C2C12 cells were previously incubated in serum-free and glucose-free DMEM medium, then incubated with HEPES buffer for 30 min and then incubated for a further 30 min in glucose-uptake buffer containing vehicle, Ric4 (100 µM), or insulin (100 nM) in the presence of ^3H-glucose (1 µCi/mL) or 2-NBDG (80 µM). After incubations cells were lysed with 50 μL of 0.1 N NaOH and fluorescence or radiation of aliquots from the lysate were measured (A). Epididymal adipose tissue explants (20–25 mg) were incubated in Krebs–Ringer bicarbonate buffer containing glucose 5.5 mM and 1 μCi/mL of ^3H-deoxyglucose supplemented with 2% fatty acid-free for 30 min at 37 °C in the presence or absence of insulin (100 nM) or Ric4 (100 µM). The explants were processed to evaluate the uptake of ^3H-deoxyglucose (B). Myotubes were previously incubated in serum-free and glucose-free DMEM medium and then treated with control vehicle PBS or Ric4 (100 µM) for 30 min. Proteins from subcellular fractions: N/ER (C), microsomal (D), plasma membrane (E), were isolated and the expression Glut4 was analyzed by Western blot. Images were quantified using ImageJ 1.49 software. The statistical comparisons were performed using analysis of variance (ANOVA), followed by ad-hoc Tukey’s test using GraphPad Prism software * p < 0.05; # p < 0.05; **** p < 0.0001.

[1] = tested on: differentiated C2C12 cells; experiment: Glucose uptake in C2C12 myotubes; format: cell-based, mouse; settings: peptides 100 µM, insulin 100 nM; 30 min, 37 °C; 3H-glucose (1 µCi/mL) or 2-NBDG (80 µM)
[2] = C2C12 myotubes, Ric4 100 µM, insulin 100 nM, 30 min, Western blot

Row | Substance | Glut4 presence in microsomal membranes (Glut4; [2]) | translocation of Glut4 to plasma membrane (Glut4; [2]) | translocation of Glut4 to rough endoplasmic reticulum (RER) membranes (N/ER fraction) (Glut4; [2]) | glucose uptake in differentiated C2C12 cells [1] | Glut4 presence in microsomal membranes (Glut4)
1 | Insulin | not observed | induced translocation of Glut4 to plasma membrane | not observed | stimulate glucose uptake | –
2 | LASVSTVLTSKYR [Ric4, intracellular peptide derived from hemoglobin alpha subunit, last 13 C-terminal amino acids] | – | induced translocation of Glut4 to plasma membrane | increased | stimulate glucose uptake | decreasing
